A value given as a limit tells only on which side of the number the result lay.

The IC50 is the concentration needed to halve the response being measured.

One data set concerns the target CYP3A4(BFC) (Homo sapiens, UniProt P08684). The data set is described as follows: CYP3A4 inhibition (substrate BFC). The class given is in vitro ADME. The conditions noted are these: read-out: Cyp IC50 (μM) 3A4(BFC). On the procedure: (§1) CYP (Cytochrome P450) enzymes are the major drug metabolizing enzymes present in the liver. The inhibition of CYP enzyme activity (IC50) for each of CYP1A2, CYP2C19, CYP2C9, CYP2D6, CYP3A4(BFC) and CYP3A4(BQ) is determined for compounds, where inhibition of metabolism of a known substrate leads to a decrease in the fluorescence of the metabolized product. The fluorescence of the product is monitored as a function of compound concentration. Compounds are dissolved in dimethyl sulfoxide to a concentration of 100 mM. These are diluted […], into 82 μL of acetonitrile. An 11 μL aliquot of this solution is then added to 204 μL of cofactor mix (1.3% NADPH Regeneration system Solution A, 1.04% NADPH Regeneration system Solution B from BD Biosciences, 5% acetonitrile and 0.05% dimethyl sulfoxide). These are then serially diluted 1:1 (160 μL to 160 μL co-factor mix) for a total of 10 points. A 10 μL aliquot of this final mixture is dispensed into 384 well assay plates and incubated for 10 minutes at 37° C. Enzyme and substrate mix (10 μL; 0.5 pmol CYP1A2/5 μM CEC; 1.0 pmol CYP2C9/75 μM MFC; 0.5 pmol CYP2C19/25 μM CEC; 1.5 pmol CYP2D6/1.5 μM AMMC; 1.0 pmol CYP3A4/50 μM BFC; or 1.0 pmol CYP3A4/40 μM BQ) is added to these assay plates. Assay plates are incubated at 37° C. (CYP1A2-15 min; CYP2C9-45 min; CYP2C19, 2D6 and 3A4-30 min) and read in a Tecan Safire 2 plate reader (CYP1A2, 2C19 and 3A4 409 ex/460 em; CYP2C9 and 2D6 409 ex/530 em). The signal versus compound concentration is used to determine the IC50. The enzymes and substrates for this assay are obtained from BD Biosciences.

The next data set concerns the target CYP3A4(BQ) (Homo sapiens, UniProt P08684). Put plainly: CYP3A4 inhibition (substrate BQ). The class given is in vitro ADME. As to conditions: read-out: Cyp IC50 (μM) 3A4(BQ). On the procedure: as §1
A further data set concerns the target T1, CYP1A2 (Homo sapiens, UniProt P05177).
T1 sequence (P05177 1-516): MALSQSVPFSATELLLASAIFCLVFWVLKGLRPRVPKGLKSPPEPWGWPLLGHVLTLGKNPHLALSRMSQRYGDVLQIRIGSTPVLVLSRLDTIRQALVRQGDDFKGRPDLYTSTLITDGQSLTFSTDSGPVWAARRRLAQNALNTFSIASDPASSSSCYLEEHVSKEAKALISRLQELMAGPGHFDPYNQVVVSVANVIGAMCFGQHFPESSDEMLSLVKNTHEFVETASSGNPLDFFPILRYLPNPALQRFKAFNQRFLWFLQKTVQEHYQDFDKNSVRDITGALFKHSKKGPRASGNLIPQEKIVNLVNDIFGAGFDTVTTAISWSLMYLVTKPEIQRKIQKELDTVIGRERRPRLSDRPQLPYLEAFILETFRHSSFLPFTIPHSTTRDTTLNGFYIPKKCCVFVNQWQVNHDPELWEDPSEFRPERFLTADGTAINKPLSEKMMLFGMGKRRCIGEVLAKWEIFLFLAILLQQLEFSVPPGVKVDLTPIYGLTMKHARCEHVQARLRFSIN
The data set is described as follows: CYP1A2 inhibition (fluorescent substrate CEC). Type of data set: in vitro ADME. The conditions noted are these: read-out: Cyp IC50 (μM) 1A2. On the procedure:
as §1

A further data set concerns the target CYP2C9 (Homo sapiens, UniProt P11712). The data set is described as follows: CYP2C9 inhibition (fluorescent substrate MFC). The class given is in vitro ADME. The conditions noted are these: read-out: Cyp IC50 (μM) 2C9. On the procedure: as §1
For another data set, the target named is CYP2D6 (Homo sapiens, UniProt P10635). Put plainly: CYP2D6 inhibition (fluorescent substrate AMMC). The class given is in vitro ADME. The conditions noted are these: read-out: Cyp IC50 (μM) 2D6. On the procedure: as §1
Sequence of CYP2D6 (P10635 whole entry): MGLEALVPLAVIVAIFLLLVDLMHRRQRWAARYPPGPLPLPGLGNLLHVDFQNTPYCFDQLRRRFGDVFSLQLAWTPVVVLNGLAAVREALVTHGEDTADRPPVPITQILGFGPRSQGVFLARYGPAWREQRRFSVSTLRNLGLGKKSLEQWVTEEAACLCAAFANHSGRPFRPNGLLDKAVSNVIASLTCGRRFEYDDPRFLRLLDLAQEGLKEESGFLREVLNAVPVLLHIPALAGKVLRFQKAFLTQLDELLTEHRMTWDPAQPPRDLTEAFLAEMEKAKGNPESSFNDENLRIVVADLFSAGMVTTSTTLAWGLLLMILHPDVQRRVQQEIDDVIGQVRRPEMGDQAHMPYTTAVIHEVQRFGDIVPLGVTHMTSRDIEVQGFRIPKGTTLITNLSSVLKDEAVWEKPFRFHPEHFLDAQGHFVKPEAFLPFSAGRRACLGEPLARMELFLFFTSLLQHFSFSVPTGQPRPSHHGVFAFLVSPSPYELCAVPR
Data set [1] can be described thus: Relative solubility by turbidity in aqueous buffers (pH 1.5, 4.5, 6.8, 7.4). The class given is physicochemical. As to conditions: for turbidity threshold (L, M, H) 1.4: pH 1.5 buffer (SGF); for turbidity threshold (L, M, H) 4.5: pH 4.5 buffer (SIF); for turbidity threshold (L, M, H) 6.8: pH 6.8 buffer (SIF); for turbidity threshold (L, M, H) 7.4: pH 7.4 buffer (HEPES). The procedure: As an indication of relative solubility, the turbidity of compounds in aqueous solutions is assessed. To assess possible compound properties in different physiological compartments, such as stomach, intestine, and blood, a series of aqueous buffers with varying pH is used. Thus each compound is diluted into four different physiologically relevant buffers and solution turbidity is measured by spectrophotometry.
Compounds are dissolved at a concentration of 25 mM in dimethyl sulfoxide, then serially diluted 1:1 into a 96 well plate, diluting 10 times in pure dimethyl sulfoxide, with the final well of each row a dimethyl sulfoxide blank. In an assay plate, 99 μL of appropriate buffer is added to each well, and 1 μL of each sample dilution is added to the buffer, achieving a range of final total concentrations in aqueous solutions having different pH. The buffers used are Simulated Gastric Fluid (SGF-pH 1.5) 0.5M NaCl, pH 1.5; Simulated Intestinal fluid (SIF-pH 4.5 and pH 6.8) 0.05M NaH2PO4, pH 4.5 and 6.8; and Hepes Buffer (HEPES-pH 7.4) 10 mM HEPES, 150 mM NaCl, pH 7.4. Control compounds pyrene, estriol and propranolol HCl are also assessed. Plates are spun and then mixed for 1 minute, and the absorbance is read using a Tecan Safire II to read wavelengths in the visible range (490, 535, and 650 nm) at four locations per well, reflecting the degree of turbidity present. The average optical density for each wavelength in each well is graphed vs. compound concentration, and the concentration at which the curve crosses a threshold O.D. of 0.01 for each wavelength is reported as the endpoint turbidity assay result. The average of the three wavelengths is used to compare turbidity of compounds. Compounds are considered to have low solubility if the threshold concentration is <31.3 μM, moderate solubility if the threshold concentration is 31.3 μM to 250 μM, and high solubility if the threshold concentration is >250 μM.
The following table indicates the relative solubility (L=low, M=moderate, H=high) based on turbidity threshold concentration at each pH for exemplary compounds according to the invention: […]

In the next data set the target is CYP2C19 (Homo sapiens, UniProt P33261). The data set is described as follows: CYP2C19 inhibition (fluorescent substrate CEC). Type of data set: in vitro ADME. As to conditions: read-out: Cyp IC50 (μM) 2C19. The procedure:
as §1

The next data set concerns the target c-Raf-1 (Homo sapiens, UniProt P04049). Put plainly: c-Raf-1 kinase activity assay (AlphaScreen, biotin-MEK1 substrate). The conditions noted are these: 100 μM ATP, 100 nM biotin-MEK1, 45 minutes at room temperature; read-out: Biochemical activity (IC50 μM) c-Raf-1. The essentials: (§2)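 AlphaScreen detection of phospho-MEK1 uses anti-phospho-MEK1/2 antibody and donor/acceptor beads, incubated 3 h. The kinase step runs 45 min at room temperature with 0.1 ng enzyme, 100 nM biotin-MEK1 and 100 μM ATP in 50 mM HEPES pH 7.0. IC50 is derived from eight compound concentrations.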

Another data set has as its target B-Raf V600E (Homo sapiens, UniProt P15056, V600E). Put plainly: B-Raf V600E kinase activity assay (AlphaScreen, biotin-MEK1 substrate). As to conditions: 100 μM ATP, 100 nM biotin-MEK1, 45 minutes at room temperature, read-out: Biochemical activity (IC50 μM) V600E. In a few lines:
as §2
A general note: In Alpha technology, singlet oxygen from a donor bead excites a nearby acceptor bead.

For the next data set, the target named is B-Raf (Homo sapiens, UniProt P15056). Put plainly: B-Raf kinase activity assay (AlphaScreen, biotin-MEK1 substrate). The conditions noted are these: 100 μM ATP, 100 nM biotin-MEK1, 45 minutes at room temperature; read-out: Biochemical activity (IC50 μM) B-Raf. In a few lines:
as §2

Sequence of CYP2C19 (P33261 whole entry): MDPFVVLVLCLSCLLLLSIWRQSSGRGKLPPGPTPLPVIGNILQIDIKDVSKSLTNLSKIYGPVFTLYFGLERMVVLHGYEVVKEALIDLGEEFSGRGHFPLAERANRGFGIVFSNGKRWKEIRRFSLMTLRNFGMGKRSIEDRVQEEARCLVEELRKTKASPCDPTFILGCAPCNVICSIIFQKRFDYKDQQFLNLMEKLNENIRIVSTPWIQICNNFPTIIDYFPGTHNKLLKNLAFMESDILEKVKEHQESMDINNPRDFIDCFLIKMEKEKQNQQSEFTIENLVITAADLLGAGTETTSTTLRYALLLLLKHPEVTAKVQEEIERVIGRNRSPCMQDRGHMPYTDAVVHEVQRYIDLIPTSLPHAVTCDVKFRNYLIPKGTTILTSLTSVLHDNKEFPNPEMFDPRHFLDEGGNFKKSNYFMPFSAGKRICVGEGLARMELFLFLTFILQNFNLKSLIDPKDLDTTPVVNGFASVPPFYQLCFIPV
Sequence of CYP3A4(BQ) (P08684 whole entry): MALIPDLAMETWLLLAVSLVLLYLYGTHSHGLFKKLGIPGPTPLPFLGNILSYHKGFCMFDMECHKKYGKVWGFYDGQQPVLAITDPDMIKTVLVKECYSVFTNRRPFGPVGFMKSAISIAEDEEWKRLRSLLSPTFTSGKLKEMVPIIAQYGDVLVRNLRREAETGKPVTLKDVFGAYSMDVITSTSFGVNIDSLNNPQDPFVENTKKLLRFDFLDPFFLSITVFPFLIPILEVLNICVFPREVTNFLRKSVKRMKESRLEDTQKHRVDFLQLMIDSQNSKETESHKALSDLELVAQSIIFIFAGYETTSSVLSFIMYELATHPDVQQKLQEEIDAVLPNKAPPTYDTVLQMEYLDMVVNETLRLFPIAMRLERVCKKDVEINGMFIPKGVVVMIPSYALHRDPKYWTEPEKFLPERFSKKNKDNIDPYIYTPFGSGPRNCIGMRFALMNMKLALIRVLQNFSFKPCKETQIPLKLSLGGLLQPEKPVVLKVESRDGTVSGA
Sequence of CYP3A4(BFC) (P08684 whole entry): as above
Sequence of CYP2C9 (P11712 whole entry): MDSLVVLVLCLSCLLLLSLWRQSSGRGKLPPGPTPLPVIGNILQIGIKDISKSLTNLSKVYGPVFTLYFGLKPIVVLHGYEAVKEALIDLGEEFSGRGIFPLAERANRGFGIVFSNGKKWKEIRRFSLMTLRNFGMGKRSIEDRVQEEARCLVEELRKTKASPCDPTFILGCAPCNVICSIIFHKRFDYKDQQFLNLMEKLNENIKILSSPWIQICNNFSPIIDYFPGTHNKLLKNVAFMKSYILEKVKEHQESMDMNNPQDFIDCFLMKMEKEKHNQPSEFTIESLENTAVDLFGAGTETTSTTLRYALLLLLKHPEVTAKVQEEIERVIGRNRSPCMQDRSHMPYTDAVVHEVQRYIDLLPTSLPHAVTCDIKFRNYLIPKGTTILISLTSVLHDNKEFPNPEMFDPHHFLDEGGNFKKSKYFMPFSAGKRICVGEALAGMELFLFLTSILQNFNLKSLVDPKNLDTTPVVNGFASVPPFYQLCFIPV
Sequence of c-Raf-1 (P04049 whole entry Y340D/Y341D, form open): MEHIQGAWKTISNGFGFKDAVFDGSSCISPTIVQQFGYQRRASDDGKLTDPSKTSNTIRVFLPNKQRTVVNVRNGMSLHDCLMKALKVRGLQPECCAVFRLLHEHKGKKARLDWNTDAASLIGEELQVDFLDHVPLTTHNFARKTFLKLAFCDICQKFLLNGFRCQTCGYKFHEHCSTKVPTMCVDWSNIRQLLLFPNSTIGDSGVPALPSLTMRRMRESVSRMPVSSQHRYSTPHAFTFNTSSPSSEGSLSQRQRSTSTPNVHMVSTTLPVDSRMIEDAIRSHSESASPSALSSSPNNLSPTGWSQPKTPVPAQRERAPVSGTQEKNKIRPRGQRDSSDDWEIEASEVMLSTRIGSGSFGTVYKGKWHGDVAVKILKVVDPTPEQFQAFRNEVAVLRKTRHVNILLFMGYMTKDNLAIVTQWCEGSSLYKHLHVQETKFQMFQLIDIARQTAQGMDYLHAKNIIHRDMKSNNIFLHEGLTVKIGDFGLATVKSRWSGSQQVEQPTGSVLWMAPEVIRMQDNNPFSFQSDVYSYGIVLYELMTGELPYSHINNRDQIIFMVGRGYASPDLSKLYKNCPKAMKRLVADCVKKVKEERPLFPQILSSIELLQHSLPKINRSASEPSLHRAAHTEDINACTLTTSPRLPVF
Sequence of B-Raf (P15056 whole entry): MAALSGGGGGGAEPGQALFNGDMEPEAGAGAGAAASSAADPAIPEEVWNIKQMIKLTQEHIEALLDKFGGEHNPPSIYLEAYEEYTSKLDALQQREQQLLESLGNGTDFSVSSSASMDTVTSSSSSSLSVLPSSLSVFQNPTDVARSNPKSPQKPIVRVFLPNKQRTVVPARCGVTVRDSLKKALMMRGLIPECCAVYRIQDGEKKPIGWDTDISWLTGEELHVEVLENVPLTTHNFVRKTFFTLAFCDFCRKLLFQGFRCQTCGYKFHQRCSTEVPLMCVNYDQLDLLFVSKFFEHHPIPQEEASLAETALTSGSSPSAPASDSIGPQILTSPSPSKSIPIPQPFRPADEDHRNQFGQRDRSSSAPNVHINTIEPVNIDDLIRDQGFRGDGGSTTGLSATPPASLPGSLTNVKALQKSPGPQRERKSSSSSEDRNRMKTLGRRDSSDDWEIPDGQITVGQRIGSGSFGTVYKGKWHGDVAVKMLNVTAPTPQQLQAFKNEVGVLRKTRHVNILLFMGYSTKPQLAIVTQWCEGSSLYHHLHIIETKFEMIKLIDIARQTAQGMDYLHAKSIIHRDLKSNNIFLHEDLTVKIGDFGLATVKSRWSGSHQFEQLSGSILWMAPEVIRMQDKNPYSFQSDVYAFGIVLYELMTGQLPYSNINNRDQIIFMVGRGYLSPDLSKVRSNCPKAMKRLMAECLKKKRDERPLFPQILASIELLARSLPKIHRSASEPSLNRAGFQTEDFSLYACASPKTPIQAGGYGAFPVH
Sequence of B-Raf V600E (P15056 whole entry V600E): as the sequence (P15056 whole entry) above, with V600E counted along it

In the case of `CCCS(=O)(=O)Nc1ccc(F)c(C(=O)c2c[nH]c3ncc(-c4ccc5cccnc5c4)cc23)c1F` [P-0033, Propane-1-sulfonic acid [2,4-difluoro-3-(5-quinolin-7-yl-1H-pyrrolo[2,3-b]pyridine-3-carbonyl)-phenyl]-amide], the IC50 at CYP3A4(BFC) was more than 10 µM; on CYP3A4(BQ), more than 10 µM; at CYP1A2 it was more than 10 µM; on CYP2C9, more than 10 µM; at CYP2D6, more than 10 µM; at CYP2C19, less than 5 µM. Moreover, in data set [1], the “turbidity threshold (L, M, H) 1.4” value is “L (low solubility if the threshold concentration is <31.3 μM)”. Further, the “turbidity threshold (L, M, H) 4.5” value in data set [1] is given as “L (low solubility if the threshold concentration is <31.3 μM)”. In data set [1], the “turbidity threshold (L, M, H) 6.8” value is reported as “L (low solubility if the threshold concentration is <31.3 μM)”. In data set [1], the “turbidity threshold (L, M, H) 7.4” value is “L (low solubility if the threshold concentration is <31.3 μM)”.

As for `CCCS(=O)(=O)Nc1ccc(F)c(C(=O)c2c[nH]c3ncc(-c4cnn(C5CCN(C(=O)OC(C)(C)C)CC5)c4)cc23)c1F` [P-1001, 4-(4-{3-[2,6-Difluoro-3-(propane-1-sulfonylamino)-benzoyl]-1H-pyrrolo[2,3-b]pyridin-5-yl}-pyrazol-1-yl)-piperidine-1-carboxylic acid tert-butyl ester], the IC50 at CYP3A4(BFC) was 5 to 10 µM; at CYP3A4(BQ), more than 10 µM; at c-Raf-1, less than 0.1 µM; at CYP1A2 it was more than 10 µM; at CYP2C9 it was more than 10 µM; at CYP2D6 it was more than 10 µM. Also, the IC50 on CYP2C19 lay in the range of 5 to 10 µM. In addition, the “turbidity threshold (L, M, H) 1.4” value in data set [1] is listed as “M (moderate solubility if the threshold concentration is 31.3 μM to 250 μM)”. Also, in [1], the “turbidity threshold (L, M, H) 4.5” value is “L (low solubility if the threshold concentration is <31.3 μM)”. Further, in data set [1], the “turbidity threshold (L, M, H) 6.8” value was “M (moderate solubility if the threshold concentration is 31.3 μM to 250 μM)”. In addition, the “turbidity threshold (L, M, H) 7.4” value in [1] was “L (low solubility if the threshold concentration is <31.3 μM)”.

On to `COc1ccc(-c2cnc3[nH]cc(C(=O)c4c(F)ccc(NS(=O)(=O)c5cc(F)ccc5F)c4F)c3c2)cn1` [P-1404, N-{2,4-Difluoro-3-[5-(6-methoxy-pyridin-3-yl)-1H-pyrrolo[2,3-b]pyridine-3-carbonyl]-phenyl}-2,5-difluoro-benzenesulfonamide], for which the IC50 on CYP3A4(BFC) was more than 10 µM; on CYP3A4(BQ), more than 10 µM; on B-Raf V600E it was less than 0.1 µM; on B-Raf, less than 0.1 µM; at c-Raf-1 it was less than 0.1 µM; at CYP1A2 it was more than 10 µM. Moreover, the IC50 on CYP2C9, on CYP2D6 and at CYP2C19 was more than 10 µM each time.

In the case of `O=C(c1c(F)ccc(NS(=O)(=O)c2cc(F)ccc2F)c1F)c1c[nH]c2ncc(-c3cnc(NC4CC4)nc3)cc12` [P-1506, N-{3-[5-(2-Cyclopropylamino-pyrimidin-5-yl)-1H-pyrrolo[2,3-b]pyridine-3-carbonyl]-2,4-difluoro-phenyl}-2,5-difluoro-benzenesulfonamide], the IC50 on CYP3A4(BFC) is less than 5 µM; on CYP3A4(BQ) it was more than 10 µM; on CYP1A2 it was more than 10 µM; on CYP2C9, less than 5 µM; on CYP2D6, more than 10 µM; at CYP2C19, more than 10 µM. Moreover, the “turbidity threshold (L, M, H) 1.4” value in data set [1] is listed as “L (low solubility if the threshold concentration is <31.3 μM)”. Also, the “turbidity threshold (L, M, H) 4.5” value in [1] was “L (low solubility if the threshold concentration is <31.3 μM)”. In addition, in data set [1], the “turbidity threshold (L, M, H) 6.8” value was “L (low solubility if the threshold concentration is <31.3 μM)”. Moreover, the “turbidity threshold (L, M, H) 7.4” value in [1] is “L (low solubility if the threshold concentration is <31.3 μM)”.

For `COc1ncc(-c2cnc3[nH]cc(C(=O)c4cccc(NS(=O)(=O)c5ccccc5F)c4F)c3c2)cn1` [P-1518, 2-Fluoro-N-{2-fluoro-3-[5-(2-methoxy-pyrimidin-5-yl)-1H-pyrrolo[2,3-b]pyridine-3-carbonyl]-phenyl}-benzenesulfonamide], the IC50 on CYP3A4(BFC), on CYP3A4(BQ), on CYP1A2, on CYP2C9, on CYP2D6 and on CYP2C19 was more than 10 µM throughout. Further, the “turbidity threshold (L, M, H) 1.4” value in data set [1] is given as “L (low solubility if the threshold concentration is <31.3 μM)”. The “turbidity threshold (L, M, H) 4.5” value in data set [1] is given as “L (low solubility if the threshold concentration is <31.3 μM)”. For the same molecule, the “turbidity threshold (L, M, H) 6.8” value in [1] is “L (low solubility if the threshold concentration is <31.3 μM)”. In [1], the “turbidity threshold (L, M, H) 7.4” value is “L (low solubility if the threshold concentration is <31.3 μM)”.
